Data from US20230381121A1, “N-PALMITOYLETHANOLAMIDE AND MELATONIN FOR USE IN THE TREATMENT OF AUTISM SPECTRUM DISORDER AND OTHER NEUROBEHAVIORAL DISORDERS SIMILARLY ACCOMPANIED BY RESTLESSNESS, IRRITABILITY, SLEEP DISORDERS, AND POTENTIALLY STEREOTYPIES” (priority 2022, published 2023).
Entries after “also recorded” stand apart in the source; their conditions may differ.

How the values were obtained:
BTBR T+tf/J (BTBR) mice [1] = test: Self Grooming test in BTBR mice; format: in vivo; conditions: melatonin 0.1 mg/kg orally for 10 days, FIG. 15D
Procedure: (§1) Furthermore, experimental tests were carried out to determine the synergy of the PEA-Melatonin-DHA combination administered orally to genetically modified BTBR T+tf/J (BTBR) mice, an animal model of neurobehavioral disorders of the ASD type.
(§2) To determine the synergy of a PEA-um, melatonin and DHA combination, a second experimentation was performed, using a different animal model useful for the study of neurobehavioral disorders, and more precisely BTBR mice. […]
(§3) The animals underwent the following behavioral tests: • The social interaction test, also known as a 3-chamber social test (FIGS. 2A, 2B and FIGS. 15A, 15B) to evaluate i) the interaction time of the animals with an unknown mouse and ii) the sociability index (ratio between the time spent by the mouse exploring the area without and with the new companion). […] In this phase of the test, parameters such as the time spent by the animal exploring i) the chambers and ii) the unfamiliar mouse were detected. • The Novel Object Recognition Test or NOR test (FIGS. 3A, 3B) to examine cognition and recognition memory by calculating the time spent by the animal exploring new objects with respect to familiar ones. […] The exploration time was counted from the moment the mice directly looked at and smelled the object at a distance of less than 2 cm. […]

[2] = tested on: mice in which an autistic phenotype was induced by valproic acid (VPA); test: VPA injection model of autism: overall activity in the study; format: in vivo, C57/BL6 mice
Procedure: (§4) To evaluate the synergy of a combination PEA-um and melatonin, experimental tests were carried out by oral administration (gastric tube) of a mixture of um-PEA and melatonin (approximately 10:1 ratio) at a dose of 10 mg/kg for two weeks in mice in which an autistic phenotype was induced by a single injection of valproic acid in the form of sodium valproate (VPA).
(§5) Healthy male C57/BL6 mice fed ad libitum and housed in cages with controlled sleep/wake cycles were used in the first experimentation. […]
(§6) The animals underwent the following behavioral tests: • The social interaction test, also known as a 3-chamber social test (FIGS. 2A, 2B and FIGS. 15A, 15B) to evaluate i) the interaction time of the animals with an unknown mouse and ii) the sociability index (ratio between the time spent by the mouse exploring the area without and with the new companion). […] In this phase of the test, parameters such as the time spent by the animal exploring i) the chambers and ii) the unfamiliar mouse were detected. • The Novel Object Recognition Test or NOR test (FIGS. 3A, 3B) to examine cognition and recognition memory by calculating the time spent by the animal exploring new objects with respect to familiar ones. […]

BTBR T+tf/J (BTBR) mice [3] = test: Marble Burying test in BTBR mice; format: in vivo; conditions: melatonin 0.1 mg/kg orally for 10 days, FIG. 15C
Procedure: as §1, §2, §3

[4] = tested on: mice in which an autistic phenotype was induced by valproic acid (VPA); test: Thermal Nociception test (hot plate) in VPA mice; format: in vivo, C57/BL6 mice; conditions: melatonin at 1 mg/kg per os daily for 14 days, the worsening is significant, FIG. 6
Procedure: as §4, §5, §6

BTBR T+tf/J (BTBR) mice [5] = test: Social interaction test and 3-chamber social interaction test in BTBR mice; format: in vivo; conditions: melatonin 0.1 mg/kg orally for 10 days
Procedure: as §1, §2, §3

autistic children = conditions: um-PEA 600 mg/day, 3-month treatment; cited from earlier work
[6] = tested on: mice with a simil-autistic phenotype; conditions: cited from earlier work

SMILES | stereotyped repetitive behaviors (Self Grooming) (BTBR T+tf/J (BTBR) mice [1]) | activity in the assessments of the VPA study (social interaction, sociability index, NOR, stereotypies, EPM) ([2]; melatonin at 1 mg/kg per os daily for 14 days, 1 mg/kg) | activity in the present study (VPA model) ([2]; melatonin at a dose of 10 mg/kg per os daily for 14 days) | stereotyped repetitive behaviors (Marble Burying) (BTBR T+tf/J (BTBR) mice [3]) | VPA-induced pain insensitivity (hot plate) [4] | social interaction behavioral test (BTBR T+tf/J (BTBR) mice [5]; FIG. 15A) | 3-chamber social interaction test: side of the area where time is spent (BTBR T+tf/J (BTBR) mice [5]; FIG. 15B) | adverse effects (autistic children) | aggressiveness, cognitive and behavioral skills, and communication (autistic children) | altered behavioral status [6] | expression of the pro-inflammatory hippocampal and serum cytokines IL-6, IL-1β and TNF-α [6]
COc1ccc2[nH]cc(CCNC(C)=O)c2c1 [melatonin, N-acetyl-5-methoxy tryptamine] | no improvement | inactive; also recorded: never shown to be active | active | no improvement | worsened | no improvement | continuing to spend their time in the empty side |  |  |  | 
CCCCCCCCCCCCCCCC(=O)NCCO [um-PEA, Ultra-micronized palmitoylethanolamide] |  |  |  |  |  |  |  | without adverse effects | improves | modulating | reducing
